According to patent US4244883A, “2a,2b-Dihomo-15-alkyl-PGF2β compounds” (The Upjohn Company, priority 1979, dated 1981):

Legend:
[1] = test system: gastric lesions; test: Cytoprotective effects: inhibition of ethanol-induced gastric lesions (ulcers) in female rats; type: in vivo, rat; conditions: 2 mg/kg oral; for inhibition at 2 mg/kg: Rattus norvegicus, female rats 205-220 g, 30 min before 1 ml ethanol (80%) orally, examined 1 h after ethanol, read-out: % Inhibition (percent reduction in the number of gastric lesions in the treated group as compared to the control group); for cytoprotective effect (in words): female rats, 80% ethanol-induced gastric lesions
Procedure: Female rats of 205-220 g are deprived of food during the morning. At 1500 hrs, water is removed and the animals are placed in individual cages which prevent them from consuming hair or feces. The following morning, the prostaglandin analogs are administered orally at a fixed dose of 2 mg/kg in 1 ml of water containing 5% ethanol and 1% emulphor. Emulphor EL-620 is used. Thirty minutes later, 1 ml of ethanol (80%) is given orally to induce gastric lesions. One hour after ethanol administration, the animals are sacrificed with carbon dioxide, their stomachs disected out and opened along the greater curvature. Visual examination with a binocular magnifier is undertaken to determine the presence of necrotic ulcerations. The average number of ulcers per stomach is recorded. The control group of rats receiving only vehicle (ethanol 5%, emulphor 1% in water) prior to the administration of 80% ethanol is employed. From the number of ulcerations in control group animals, a percent inhibition is determined which is the percent reduction in the number of gastric lesions in the treated group as compared to the control group.
Following the procedure of Example 1, 2a,2b-dihomo-15-epi-PGF2β, methyl ester is compared for gastrointestinal cytoprotective activity with 2a,2b-dihomo-15-epi-15-methyl-PGF2β, methyl ester.

[2] = test system: intestinal lesions; conditions: rat; pre-treatment; Robert, et al., Gastroenterology 69:1045 (1974); cited from earlier work

SMILES	inhibition at 2 mg/kg [1] [%]	cytoprotective effect (in words) [1]	effect on indomethacin-induced intestinal lesions (in words) [2]
CCCCC[C@@](C)(O)/C=C/[C@@H]1[C@@H](C/C=C\CCCCCC(=O)OC)[C@H](O)C[C@H]1O [2a,2b-dihomo-15-epi-15-methyl-PGF2β, methyl ester]	100	totally cytoprotective	
CCCCC[C@@H](O)/C=C/[C@@H]1[C@@H](C/C=C\CCCCCC(=O)OC)[C@H](O)C[C@H]1O [2a,2b-dihomo-15-epi-PGF2β, methyl ester]	2	negligable cytoprotective effects	
CCCCC[C@](C)(O)/C=C/[C@@H]1[C@@H](C/C=C\CCCCCC(=O)OC)[C@H](O)C[C@H]1O [2a,2b-dihomo-15-methyl-PGF2β, methyl ester]	96	virtually totally cytoprotective	
CCCCC[C@H](O)/C=C/[C@@H]1[C@@H](C/C=C\CCCCCC(=O)OC)[C@H](O)C[C@H]1O [2a,2b-dihomo-PGF2β, methyl ester]	32	only modest cytoprotective effects	
CCCCC[C@H](O)/C=C/[C@H]1[C@H](O)CC(=O)[C@@H]1C/C=C\CCCC(=O)O [PGE2]			effective in reducing indomethacin-inducedintestinal lesions
